Reference: ChEMBL document CHEMBL1201862, “PubChem BioAssay data set” (2004)
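Five compound concentrations were applied to cells in 96-well plates for 48 hours; endpoints were derived by simple linear interpolation of the resulting dose-response curve. Here, GI50 denotes the concentration required for 50% inhibition of growth.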 The source made the active and inactive calls. Cut-off read from the data, not from the text of the source: active = GI50 up to about 1.1 µM and inactive = higher.

What was measured:
Assay in all cases: NCI tumour cell line growth inhibition, 48 h
UACC-257 = tested on: UACC-257
SK-MEL-28 = tested on: SK-MEL-28
SNB-19 = tested on: SNB-19
SF-295 = tested on: SF-295
SK-MEL-5 = tested on: SK-MEL-5
U-251 = tested on: U-251
SW-620 = tested on: SW-620
NCI-H226 = tested on: NCI-H226
UACC-62 = tested on: UACC-62
HL-60 = tested on: HL-60
RPMI-8226 = tested on: RPMI-8226
HCC 2998 = tested on: HCC 2998
SK-MEL-2 = tested on: SK-MEL-2
LOX IMVI = tested on: LOX IMVI
Malme-3M = tested on: Malme-3M
COLO 205 = tested on: COLO 205
SNB-78 = tested on: SNB-78
OVCAR-8 = tested on: OVCAR-8
HCT-15 = tested on: HCT-15
NCI-H460 = tested on: NCI-H460
HCT-116 = tested on: HCT-116
CCRF-CEM = tested on: CCRF-CEM
UO-31 = tested on: UO-31
SF-268 = tested on: SF-268
EKVX = tested on: EKVX
OVCAR-3 = tested on: OVCAR-3
NCI/ADR-RES = tested on: NCI/ADR-RES
NCI-H522 = tested on: NCI-H522
SF-539 = tested on: SF-539
IGROV-1 = tested on: IGROV-1
DLD-1 = tested on: DLD-1
MOLT-4 = tested on: MOLT-4
KM12 = tested on: KM12
HOP-92 = tested on: HOP-92
HT-29 = tested on: HT-29
SN12C = tested on: SN12C
TK-10 = tested on: TK-10
SR = tested on: SR
MDA-MB-231 = tested on: MDA-MB-231
NCI-H23 = tested on: NCI-H23
T47D = tested on: T47D
A498 = tested on: A498
OVCAR-4 = tested on: OVCAR-4
MCF7 = tested on: MCF7
K562 = tested on: K562
MDA-N = tested on: MDA-N
OVCAR-5 = tested on: OVCAR-5
RXF 393 = tested on: RXF 393
CAKI-1 = tested on: CAKI-1
A549 = tested on: A549
Hs-578T = tested on: Hs-578T
786-0 = tested on: 786-0
PC-3 = tested on: PC-3
MDA-MB-435 = tested on: MDA-MB-435
BT-549 = tested on: BT-549
HOP-62 = tested on: HOP-62
DU-145 = tested on: DU-145
ACHN = tested on: ACHN
SK-OV-3 = tested on: SK-OV-3
SNB-75 = tested on: SNB-75
M14 = tested on: M14

`O=C(O)/C=C/c1c[nH]c(=O)[nH]c1=O` was tested, and the GI50 (UACC-257) was > 250 µM (inactive), the GI50 (SK-MEL-28) was > 250 µM (inactive) and the GI50 (SNB-19) was > 250 µM (inactive). For the same compound, the GI50 (SF-295) was 129 µM (inactive), the GI50 (SK-MEL-5) was > 250 µM (inactive) and the GI50 (U-251) was > 250 µM (inactive). The GI50 (SW-620) was > 250 µM (inactive), the GI50 (NCI-H226) was > 250 µM (inactive) and the GI50 (UACC-62) was > 250 µM (inactive). For the same compound, the GI50 (HL-60) was 237 µM (inactive), the GI50 (RPMI-8226) was > 250 µM (inactive) and the GI50 (HCC 2998) was > 250 µM (inactive). For the same compound, the GI50 (SK-MEL-2) was > 250 µM (inactive), the GI50 (LOX IMVI) was > 250 µM (inactive) and the GI50 (Malme-3M) was > 250 µM (inactive). The GI50 (COLO 205) was > 250 µM (inactive), the GI50 (SNB-78) was > 250 µM (inactive) and the GI50 (OVCAR-8) was > 250 µM (inactive). For the same compound, the GI50 (HCT-15) was greater than 250 µM, the GI50 (NCI-H460) was > 250 µM (inactive) and the GI50 (HCT-116) was > 250 µM (inactive). The GI50 (CCRF-CEM) was > 250 µM (inactive), the GI50 (UO-31) was > 250 µM (inactive) and the GI50 (SF-268) was > 250 µM (inactive). For the same compound, the GI50 (EKVX) was > 250 µM (inactive), the GI50 (OVCAR-3) was > 250 µM (inactive) and the GI50 (NCI/ADR-RES) was > 250 µM (inactive). The GI50 (NCI-H522) was > 250 µM (inactive), the GI50 (SF-539) was > 250 µM (inactive) and the GI50 (IGROV-1) was > 250 µM (inactive). The GI50 (DLD-1) was > 250 µM (inactive), the GI50 (MOLT-4) was > 250 µM (inactive) and the GI50 (KM12) was > 250 µM (inactive).

`CC(C)C1(O)C(=O)N(c2c(F)c(F)c(F)c(F)c2F)C(=S)N1CCSc1ccccc1` (centres undefined) was tested, and the GI50 (HOP-92) was 9.53 µM (inactive), the GI50 (UACC-257) was 18.2 µM (inactive) and the GI50 (HT-29) was 18.4 µM (inactive). The GI50 (SN12C) was 15.3 µM (inactive), the GI50 (TK-10) was 14.7 µM (inactive) and the GI50 (SK-MEL-28) was 16.5 µM (inactive). For the same compound, the GI50 (SR) was 16.2 µM (inactive), the GI50 (SNB-19) was 17.8 µM (inactive) and the GI50 (MDA-MB-231) was 13.1 µM (inactive). The GI50 (SF-295) was 17.3 µM (inactive), the GI50 (SK-MEL-5) was 17.4 µM (inactive) and the GI50 (NCI-H23) was 18.1 µM (inactive). The GI50 (U-251) was 18.2 µM (inactive), the GI50 (SW-620) was 16.6 µM (inactive) and the GI50 (T47D) was 16.2 µM (inactive). For the same compound, the GI50 (A498) was 16.3 µM (inactive), the GI50 (OVCAR-4) was 15.2 µM (inactive) and the GI50 (NCI-H226) was 20.7 µM (inactive). The GI50 (MCF7) was 17.2 µM (inactive), the GI50 (UACC-62) was 15.8 µM (inactive) and the GI50 (HL-60) was 14.3 µM (inactive). For the same compound, the GI50 (K562) was 13 µM (inactive), the GI50 (RPMI-8226) was 10.9 µM (inactive) and the GI50 (MDA-N) was 17.2 µM (inactive). For the same compound, the GI50 (OVCAR-5) was 18.7 µM (inactive), the GI50 (HCC 2998) was 20.6 µM (inactive) and the GI50 (RXF 393) was 17.3 µM (inactive). For the same compound, the GI50 (SK-MEL-2) was 17.7 µM (inactive), the GI50 (LOX IMVI) was 16.5 µM (inactive) and the GI50 (Malme-3M) was 17.3 µM (inactive). The GI50 (COLO 205) was 17.9 µM (inactive), the GI50 (OVCAR-8) was 19 µM (inactive) and the GI50 (HCT-15) was 17.9 µM. For the same compound, the GI50 (CAKI-1) was 12.2 µM (inactive), the GI50 (A549) was 15.3 µM (inactive) and the GI50 (Hs-578T) was 22.6 µM (inactive). For the same compound, the GI50 (786-0) was 19.1 µM (inactive), the GI50 (NCI-H460) was 19.2 µM (inactive) and the GI50 (HCT-116) was 18.2 µM (inactive). For the same compound, the GI50 (CCRF-CEM) was 13.9 µM (inactive), the GI50 (UO-31) was 15.5 µM (inactive) and the GI50 (PC-3) was 15.7 µM (inactive). For the same compound, the GI50 (SF-268) was 18.4 µM (inactive), the GI50 (EKVX) was 18.8 µM (inactive) and the GI50 (MDA-MB-435) was 18.2 µM (inactive). For the same compound, the GI50 (OVCAR-3) was 16.4 µM (inactive), the GI50 (BT-549) was 16.1 µM (inactive) and the GI50 (HOP-62) was 18.5 µM (inactive). The GI50 (DU-145) was 17.1 µM (inactive), the GI50 (NCI/ADR-RES) was 16.3 µM (inactive) and the GI50 (NCI-H522) was 16.6 µM (inactive). The GI50 (ACHN) was 17.5 µM (inactive), the GI50 (SK-OV-3) was 17.3 µM (inactive) and the GI50 (SF-539) was 20.1 µM (inactive). The GI50 (SNB-75) was 16.7 µM (inactive), the GI50 (M14) was 17.5 µM (inactive) and the GI50 (IGROV-1) was 16.4 µM (inactive). The GI50 (MOLT-4) was 15.1 µM (inactive) and the GI50 (KM12) was 17.1 µM (inactive).

For `Fc1cccc(C2ON=C(c3ccccc3)N2C23CC4CC(CC(C4)C2)C3)c1` (centres undefined), the GI50 (HOP-92) was > 10 µM (inactive), the GI50 (UACC-257) was > 10 µM (inactive) and the GI50 (HT-29) was > 10 µM (inactive). For the same compound, the GI50 (SN12C) was > 10 µM (inactive), the GI50 (TK-10) was > 10 µM (inactive) and the GI50 (SK-MEL-28) was > 10 µM (inactive). For the same compound, the GI50 (SR) was 8.97 µM (inactive), the GI50 (SNB-19) was > 10 µM (inactive) and the GI50 (MDA-MB-231) was > 10 µM (inactive). For the same compound, the GI50 (SF-295) was > 10 µM (inactive), the GI50 (SK-MEL-5) was > 10 µM (inactive) and the GI50 (NCI-H23) was > 10 µM (inactive). The GI50 (U-251) was > 10 µM (inactive), the GI50 (SW-620) was > 10 µM (inactive) and the GI50 (T47D) was > 10 µM (inactive). The GI50 (A498) was > 10 µM (inactive), the GI50 (OVCAR-4) was > 10 µM (inactive) and the GI50 (NCI-H226) was > 10 µM (inactive). The GI50 (MCF7) was > 10 µM (inactive), the GI50 (UACC-62) was > 10 µM (inactive) and the GI50 (HL-60) was > 10 µM (inactive). For the same compound, the GI50 (K562) was > 10 µM (inactive), the GI50 (RPMI-8226) was 8.77 µM (inactive) and the GI50 (MDA-N) was > 10 µM (inactive). The GI50 (OVCAR-5) was > 10 µM (inactive), the GI50 (HCC 2998) was > 10 µM (inactive) and the GI50 (RXF 393) was > 10 µM (inactive). For the same compound, the GI50 (SK-MEL-2) was > 10 µM (inactive), the GI50 (LOX IMVI) was > 10 µM (inactive) and the GI50 (Malme-3M) was > 10 µM (inactive). For the same compound, the GI50 (COLO 205) was > 10 µM (inactive), the GI50 (OVCAR-8) was > 10 µM (inactive) and the GI50 (HCT-15) was greater than 10 µM. For the same compound, the GI50 (CAKI-1) was > 10 µM (inactive), the GI50 (A549) was > 10 µM (inactive) and the GI50 (Hs-578T) was > 10 µM (inactive). The GI50 (786-0) was > 10 µM (inactive), the GI50 (NCI-H460) was > 10 µM (inactive) and the GI50 (HCT-116) was > 10 µM (inactive). The GI50 (PC-3) was > 10 µM (inactive), the GI50 (SF-268) was > 10 µM (inactive) and the GI50 (EKVX) was > 10 µM (inactive). The GI50 (MDA-MB-435) was > 10 µM (inactive), the GI50 (OVCAR-3) was > 10 µM (inactive) and the GI50 (BT-549) was > 10 µM (inactive). The GI50 (HOP-62) was > 10 µM (inactive), the GI50 (DU-145) was > 10 µM (inactive) and the GI50 (NCI/ADR-RES) was > 10 µM (inactive). For the same compound, the GI50 (NCI-H522) was > 10 µM (inactive), the GI50 (ACHN) was > 10 µM (inactive) and the GI50 (SK-OV-3) was > 10 µM (inactive). The GI50 (SF-539) was > 10 µM (inactive), the GI50 (SNB-75) was > 10 µM (inactive) and the GI50 (M14) was > 10 µM (inactive). The GI50 (IGROV-1) was > 10 µM (inactive), the GI50 (MOLT-4) was > 10 µM (inactive) and the GI50 (KM12) was > 10 µM (inactive).
